From patent publication US6770597B2, “Benzohydrazide derivatives as herbicides and desiccant compositions containing them” (Ishihara Sangyo Kaisha, Ltd., priority 2002, dated 2004)

Key:
Assay type in all cases: in vivo
[1] = test system: ivyleaf morningglory (Ipomoea hederacea, IPOHE); assay: Greenhouse herbicide screen, pre-emerge application, phytotoxicity rating; settings: PRE emergent, 14 days after application, rating scale 0-100
Source text: (§1) A standard greenhouse herbicide activity screening system was used to evaluate the herbicidal efficacy and crop safety of these test compounds. Seven broadleaf weed species including redroot pigweed (Amaranthus retrofiexus, AMARE), velvetleaf (Abutilon theophrasti, ABUTH), sicklepod (Cassia obtusifolia, CASOB), ivyleaf morningglory (Ipomoea hederacea, IPOHE), lambsquarters (Chenopodium album, CHEAL), common ragweed (Ambrosia artemisiifolia L., AMBEL), and cocklebur (Xanthium strumarium, XANST) were used as test species. Four grass weed species including green foxtail (Setaria viridis, SETVI), barnyardgrass (Echinochloa crus-galli, ECHCG), johnsongrass (Sorghum halepense, SORHA), and large crabgrass (Digitaria sanguinalis, DIGSA) were also used. In addition, four crop species, field corn (Zea mays L., var. Dekalb 535, CORN), soybean (Glycine max L., var. Pella 86, SOY), upland rice (Oryza sp., var.Cocodrie, RICE) and wheat (Triticum aestivum L.) were included.
(§2) All plants were grown in 10 cm square plastic pots which were filled with a sandy loam soil mix. For pre-emerge tests, seeds were planted one day prior to application of the test compounds. For post-emerge tests, seeds were planted 8-21 days prior to the test to allow emergence and good foliage development prior to application of the test substances. At the time of the post-emerge application, plants of all species were usually at the 2-3 leaf stage of development.
(§3) All test compounds were dissolved in acetone and applied to the test units in a volume of 187 l/ha. Test materials were applied at rates ranging from 15 g ai/ha to 1000 g ai/ha using a track sprayer equipped with a TJ8001E even flow flat fan spray nozzle. Plants were arranged on a shelf so that the top of the canopy (post-emerge) or top of the soil surface (pre-emerge) was 40-45 cm below the nozzle. Pressurized air was used to force the test solution through the nozzle as it was mechanically advanced (via electrically driven chain drive) over the top of all test plants/pots. This application simulates a typical commercial field herbicide application.
(§4) Pre-emergence tests were top watered immediately after treatment to incorporate the test materials, then routinely top-watered for normal growth. Post-emerge test units were always bottom-watered.
(§5) At 14 days after application of the test materials, phytotoxicity ratings were recorded. A rating scale of 0-100 was used as previously described in Research Methods in Weed Science, 2nd edition, B. Truelove, Ed., Southern Weed Science Society, Auburn University, Auburn, Ala., 1977. Briefly, “0” corresponds to no damage and “100” corresponds to complete death of all plants in the test unit. This scale was used both to determine efficacy against weed species and damage to crop species. Herbicide activity data for various compounds of this invention, which are shown by compound No. in Tables 1-12, are shown in Tables 13 and 14.

[2] = test system: common ragweed (Ambrosia artemisiifolia L., AMBEL); assay: as above; settings: PRE emergent, 14 days after application, rating scale 0-100
Source text: as §1, §2, §3, §4, §5

[3] = test system: sicklepod (Cassia obtusifolia, CASOB); assay: as above; settings: PRE emergent, 14 days after application, rating scale 0-100
Source text: as §1, §2, §3, §4, §5

[4] = test system: cocklebur (Xanthium strumarium, XANST); assay: as above; settings: PRE emergent, 14 days after application, rating scale 0-100
Source text: as §1, §2, §3, §4, §5

[5] = test system: barnyardgrass (Echinochloa crus-galli, ECHCG); assay: as above; settings: PRE emergent, 14 days after application, rating scale 0-100
Source text: as §1, §2, §3, §4, §5

[6] = test system: johnsongrass (Sorghum halepense, SORHA); assay: as above; settings: PRE emergent, 14 days after application, rating scale 0-100
Source text: as §1, §2, §3, §4, §5

[7] = test system: green foxtail (Setaria viridis, SETVI); assay: as above; settings: PRE emergent, 14 days after application, rating scale 0-100
Source text: as §1, §2, §3, §4, §5

[8] = test system: velvetleaf (Abutilon theophrasti, ABUTH); assay: as above; settings: PRE emergent, 14 days after application, rating scale 0-100
Source text: as §1, §2, §3, §4, §5

[9] = test system: redroot pigweed (Amaranthus retrofiexus, AMARE); assay: as above; settings: PRE emergent, 14 days after application, rating scale 0-100
Source text: as §1, §2, §3, §4, §5

[10] = test system: large crabgrass (Digitaria sanguinalis, DIGSA); assay: as above; settings: PRE emergent, 14 days after application, rating scale 0-100
Source text: as §1, §2, §3, §4, §5

[11] = test system: lambsquarters (Chenopodium album, CHEAL); assay: as above; settings: PRE emergent, 14 days after application, rating scale 0-100
Source text: as §1, §2, §3, §4, §5

[12] = test system: field corn (Zea mays L., var. Dekalb 535, CORN); assay: Greenhouse herbicide screen, pre-emerge application, crop damage rating; settings: PRE emergent, 14 days after application, rating scale 0-100
Source text: as §1, §2, §3, §4, §5

[13] = test system: upland rice (Oryza sp., var.Cocodrie, RICE); assay: as above; settings: PRE emergent, 14 days after application, rating scale 0-100
Source text: as §1, §2, §3, §4, §5

[14] = test system: field corn (Zea mays L., var. Dekalb 535, CORN); assay: Greenhouse herbicide screen, post-emerge application, crop damage rating; settings: POST emergent, 14 days after application, scale 0-100
Source text: as §1, §2, §3, §4, §5

[15] = test system: upland rice (Oryza sp., var.Cocodrie, RICE); assay: as above; settings: POST emergent, 14 days after application, scale 0-100
Source text: as §1, §2, §3, §4, §5

[16] = test system: ivyleaf morningglory (Ipomoea hederacea, IPOHE); assay: Greenhouse herbicide screen, post-emerge application, phytotoxicity rating; settings: POST emergent, 14 days after application, scale 0-100
Source text: as §1, §2, §3, §4, §5

[17] = test system: common ragweed (Ambrosia artemisiifolia L., AMBEL); assay: as above; settings: POST emergent, 14 days after application, scale 0-100
Source text: as §1, §2, §3, §4, §5

[18] = test system: sicklepod (Cassia obtusifolia, CASOB); assay: as above; settings: POST emergent, 14 days after application, scale 0-100
Source text: as §1, §2, §3, §4, §5

[19] = test system: cocklebur (Xanthium strumarium, XANST); assay: as above; settings: POST emergent, 14 days after application, scale 0-100
Source text: as §1, §2, §3, §4, §5

[20] = test system: barnyardgrass (Echinochloa crus-galli, ECHCG); assay: as above; settings: POST emergent, 14 days after application, scale 0-100
Source text: as §1, §2, §3, §4, §5

[21] = test system: johnsongrass (Sorghum halepense, SORHA); assay: as above; settings: POST emergent, 14 days after application, scale 0-100
Source text: as §1, §2, §3, §4, §5

[22] = test system: green foxtail (Setaria viridis, SETVI); assay: as above; settings: POST emergent, 14 days after application, scale 0-100
Source text: as §1, §2, §3, §4, §5

[23] = test system: velvetleaf (Abutilon theophrasti, ABUTH); assay: as above; settings: POST emergent, 14 days after application, scale 0-100
Source text: as §1, §2, §3, §4, §5

[24] = test system: redroot pigweed (Amaranthus retrofiexus, AMARE); assay: as above; settings: POST emergent, 14 days after application
Source text: as §1, §2, §3, §4, §5

[25] = test system: large crabgrass (Digitaria sanguinalis, DIGSA); assay: as above; settings: POST emergent, 14 days after application, scale 0-100
Source text: as §1, §2, §3, §4, §5

[26] = test system: lambsquarters (Chenopodium album, CHEAL); assay: as above; settings: POST emergent, 14 days after application, scale 0-100
Source text: as §1, §2, §3, §4, §5

CCOC(=O)NNC(=O)c1cc(-n2c(=O)cc(C(F)(F)F)n(C)c2=O)c(F)cc1Cl [Compound 1-23] was tested, and the “phytotoxicity rating IPOHE” value ([1]; 63 g ai/ha) was 98, the “phytotoxicity rating IPOHE” value ([1]; 250 g ai/ha) was 100 and the “phytotoxicity rating AMBEL” value ([2]; 63 g ai/ha) was 85. The “phytotoxicity rating AMBEL” value ([2]; 250 g ai/ha) was 100, the “phytotoxicity rating CASOB” value ([3]; 63 g ai/ha) was 98 and the “phytotoxicity rating CASOB” value ([3]; 250 g ai/ha) was 98. For the same compound, the “phytotoxicity rating XANST” value ([4]; 63 g ai/ha) was 100, the “phytotoxicity rating XANST” value ([4]; 250 g ai/ha) was 100 and the “phytotoxicity rating ECHCG” value ([5]; 63 g ai/ha) was 50. The “phytotoxicity rating ECHCG” value ([5]; 250 g ai/ha) was 75, the “phytotoxicity rating SORHA” value ([6]; 63 g ai/ha) was 70 and the “phytotoxicity rating SORHA” value ([6]; 250 g ai/ha) was 99. The “phytotoxicity rating SETVI” value ([7]; 63 g ai/ha) was 55, the “phytotoxicity rating SETVI” value ([7]; 250 g ai/ha) was 99 and the “phytotoxicity rating ABUTH” value ([8]; 63 g ai/ha) was 100. For the same compound, the “phytotoxicity rating ABUTH” value ([8]; 250 g ai/ha) was 100, the “phytotoxicity rating AMARE” value ([9]; 63 g ai/ha) was 100 and the “phytotoxicity rating AMARE” value ([9]; 250 g ai/ha) was 100. For the same compound, the “phytotoxicity rating DIGSA” value ([10]; 63 g ai/ha) was 75, the “phytotoxicity rating DIGSA” value ([10]; 250 g ai/ha) was 75 and the “phytotoxicity rating CHEAL” value ([11]; 63 g ai/ha) was 100. For the same compound, the “phytotoxicity rating CHEAL” value ([11]; 250 g ai/ha) was 100, the “crop damage rating CORN” value ([12]; 63 g ai/ha) was 80 and the “crop damage rating CORN” value ([12]; 250 g ai/ha) was 100. For the same compound, the “crop damage rating RICE” value ([13]; 63 g ai/ha) was 45, the “crop damage rating RICE” value ([13]; 250 g ai/ha) was 85 and the “crop damage rating CORN” value ([14]; 63 g ai/ha) was 80. For the same compound, the “crop damage rating CORN” value ([14]; 250 g ai/ha) was 100, the “crop damage rating RICE” value ([15]; 63 g ai/ha) was 45 and the “crop damage rating RICE” value ([15]; 250 g ai/ha) was 85. The “phytotoxicity rating IPOHE” value ([16]; 63 g ai/ha) was 98, the “phytotoxicity rating IPOHE” value ([16]; 250 g ai/ha) was 100 and the “phytotoxicity rating AMBEL” value ([17]; 63 g ai/ha) was 85. The “phytotoxicity rating AMBEL” value ([17]; 250 g ai/ha) was 100, the “phytotoxicity rating CASOB” value ([18]; 63 g ai/ha) was 98 and the “phytotoxicity rating CASOB” value ([18]; 250 g ai/ha) was 98. The “phytotoxicity rating XANST” value ([19]; 63 g ai/ha) was 100, the “phytotoxicity rating XANST” value ([19]; 250 g ai/ha) was 100 and the “phytotoxicity rating ECHCO” value ([20]; 63 g ai/ha) was 50. For the same compound, the “phytotoxicity rating ECHCO” value ([20]; 250 g ai/ha) was 75, the “phytotoxicity rating SORHA” value ([21]; 63 g ai/ha) was 70 and the “phytotoxicity rating SORHA” value ([21]; 250 g ai/ha) was 99. The “phytotoxicity rating SETVI” value ([22]; 63 g ai/ha) was 55, the “phytotoxicity rating SETVI” value ([22]; 250 g ai/ha) was 99 and the “phytotoxicity rating ABUTH” value ([23]; 63 g ai/ha) was 100. For the same compound, the “phytotoxicity rating ABUTH” value ([23]; 250 g ai/ha) was 100, the “phytotoxicity rating AMARE” value ([24]; 63 g ai/ha, scale 0-100 (0 no damage, 100 complete death)) was 100 and the “phytotoxicity rating AMARE” value ([24]; 250 g ai/ha, scale 0-100) was 100. The “phytotoxicity rating DIGSA” value ([25]; 63 g ai/ha) was 75, the “phytotoxicity rating DIGSA” value ([25]; 250 g ai/ha) was 75 and the “phytotoxicity rating CHEAL” value ([26]; 63 g ai/ha) was 100. For the same compound, the “phytotoxicity rating CHEAL” value ([26]; 250 g ai/ha) was 100.
